Measured values: patent publication US20100313310A1, “METHOD FOR IMPROVED UTILIZATION OF THE PRODUCTION POTENTIAL OF TRANSGENIC PLANTS” (priority 2006, published 2010)

What was measured:
[1] = system: cotton aphid (Aphis gossypii); experiment: Spray treatment of transgenic cotton (line DP444 BG/RR) populated by cotton aphid, kill in %, Colby synergy; type: in vivo; settings: spirotetramate at 100 ppm by spray where applied
Excerpt: (§1) This is based on the following calculation base and assumption (“Colby formula”): […]
(§2) If • X is the kill rate, expressed in % of the untreated and not transgenically modified control, when employing the active compound A at an application rate of m g/ha or at a concentration of m ppm, • Y is the kill rate, expressed in % of the untreated and not transgenically modified control, when using a transgenic plant and • E is the kill rate, expressed in % of the untreated and not transgenically modified control, when employing active compound A and using a transgenically modified plant, the application rate being m and n g/ha or the concentration being m and n ppm, then
(§3) If the actual kill rate (i.e. the activity observed) is higher than the calculated one, the combination of active compound treatment and transgenically modified plant is superadditive in its kill, i.e. a synergistic effect between the active compound treatment and the use of a transgenic plant is present. In this case, the actually observed kill rate must thus be higher than the value calculated using the formula above for the kill rate (E). […]
(§4) After a desired period of time, the kill in % is determined by counting the animals. […]

[2] = system: armyworm (Spodoptera frugiperda); experiment: Spray treatment of transgenic maize lines against armyworm, kill in %, Colby synergy; type: in vivo; settings: spirotetramate at 100 ppm by spray where applied
Excerpt: as §1, §2, §3, §4

[3] = system: armyworm (Spodoptera exigua); experiment: Spray treatment of transgenic maize lines against larvae of the armyworm, kill in %, Colby synergy; type: in vivo; settings: spirotetramate at 100 ppm by spray where applied
Excerpt: as §1, §2, §3, §4

Row | Compound | melting point | other results
1 | CCOC(=O)OC1=C(c2cc(C)c(Cl)cc2C)C(=O)NC12CCC(OC)CC2 (stereo not drawn) | 162 °C | 
2 | COC1CCC2(CC1)NC(=O)C(c1c(C)cc(C)c(C)c1C)=C2O (stereo not drawn) | > 220 °C | 
3 | spirotetramate |  | Kill in % after 4d (observed) [1]: 35%; Kill in % after 1d (observed) ([2]; after 1 d): 0%; Kill in % after 4d (observed) ([2]; after 4 d): 60%; Kill in % after 4d (observed) [3]: 10%

Further lines, with some results ahead:

Row | melting point | Compound | other results
4 | > 220 °C | COC1CCC2(CC1)NC(=O)C(c1cc(C)ccc1C)=C2O (stereo not drawn) | 
5 | > 220 °C | COC1CCC2(CC1)NC(=O)C(c1c(C)ccc(Br)c1C)=C2O (stereo not drawn) | 
6 | 219 °C | COC1CCC2(CC1)NC(=O)C(c1c(C)ccc(Cl)c1C)=C2O (stereo not drawn) | 
